Reference: patent US5618813A, “Benzo[5.6]pyrano[2.3.4-ij]quinolizine and benzo[5.6]thiopyrano[2.3.4-ij]quinolizine derivatives as antibacterial and antineoplastic agents” (Abbott Laboratories, priority 1995, dated 1997)
In brackets after ≈: the same amount, converted by molar mass. Structures can show the parent of a compound that is named as a salt. Where two headings read alike, the source gives them in different places.

How the values were obtained:
Assay in all cases: In vitro antibacterial activity (MIC, agar dilution)
Assay type in all cases: cell-based
[1] = system: Staph. aureus NCTC10649; settings: Staphylococcus aureus
Protocol: (§1) Each plate was inoculated with 1:100 (or 1:10 for slow-growing strains, primarily Micrococcus and Streptococcus) dilutions of up to 32 different microorganisms, using a Steers replicator block calibrated to deliver approximately 10^4 colony forming units (CFUs). The inoculated plates were incubated at from about 35° C. to about 37° C. for approximately 20-24 hours. In o addition, a control plate using BHI agar containing no test compound was prepared and incubated at the beginning and at the end of each test. The quinolone antibacterial ciprofloxacin was used as a control ("Cntl").
(§2) The MIC was defined as the lowest concentration of test compound yielding no growth (a slight haze or sparsely isolated colonies at the inoculum spot) as compared to the growth control containing no test compound.

[2] = system: M. luteus ATCC 9341; settings: Micrococcus luteus, ATCC9341
Protocol: as §1, §2

[3] = system: Staph. aureus 1775 Cipro.R.; settings: Staphylococcus aureus
Protocol: as §1, §2

[4] = system: E. coli KNK 437; settings: Escherichia coli, KNK437
Protocol: as §1, §2

[5] = system: M. luteus ATCC 4698; settings: Micrococcus luteus, ATCC4698
Protocol: as §1, §2

[6] = system: E. coli SS; settings: Escherichia coli
Protocol: as §1, §2

[7] = system: Nocardia asteroides ATCC 9970; settings: ATCC9970
Protocol: as §1, §2

[8] = system: P. aeruginosa 2862; settings: Pseudomonas aeruginosa
Protocol: as §1, §2

[9] = system: Strep. agalactiae CMX 508; settings: Streptococcus agalactiae, CMX508
Protocol: as §1, §2

[10] = system: Staph. aureus A5177; settings: Staphylococcus aureus
Protocol: as §1, §2

[11] = system: Entero. faecium ATCC 8043; settings: Enterococcus faecium, ATCC8043
Protocol: as §1, §2

[12] = system: Klebsiella pneumoniae ATCC 8045; settings: ATCC8045
Protocol: as §1, §2

[13] = system: E. coli DC-2; settings: Escherichia coli, DC2
Protocol: as §1, §2

[14] = system: Staph. epidermidis 3519; settings: Staphylococcus epidermidis
Protocol: as §1, §2

[15] = system: Staph. aureus CMX 553; settings: Staphylococcus aureus, CMX553
Protocol: as §1, §2

[16] = system: Pseudomonas cepacia 296I; settings: Burkholderia cepacia
Protocol: as §1, §2

[17] = system: Providencia stuartii CMX 640; settings: CMX640
Protocol: as §1, §2

[18] = system: P. aeruginosa BMH 10; settings: Pseudomonas aeruginosa, BMH10
Protocol: as §1, §2

[19] = system: P. aeruginosa K799/WT; settings: Pseudomonas aeruginosa
Protocol: as §1, §2

[20] = system: E. coli H560; settings: Escherichia coli
Protocol: as §1, §2

[21] = system: Strep. pyogenes EES61; settings: Streptococcus pyogenes
Protocol: as §1, §2

[22] = system: Strep. pyogenes 930 CONST; settings: Streptococcus pyogenes
Protocol: as §1, §2

[23] = system: Enter. aerogenes ATCC 13048; settings: Klebsiella aerogenes, ATCC13048
Protocol: as §1, §2

[24] = system: Staph. aureus 5278; settings: Staphylococcus aureus
Protocol: as §1, §2

[25] = system: P. aeruginosa K799/61; settings: Pseudomonas aeruginosa
Protocol: as §1, §2

[26] = system: Myco. smegmatis ATCC 114; settings: Mycolicibacterium smegmatis, ATCC114
Protocol: as §1, §2

[27] = system: Strep. pyogenes 2458 INDUC; settings: Streptococcus pyogenes
Protocol: as §1, §2

[28] = system: P. aeruginosa A5007; settings: Pseudomonas aeruginosa
Protocol: as §1, §2

[29] = system: Acinetobacter calcoaceticus CMX 669; settings: CMX669
Protocol: as §1, §2

[30] = system: P. aeruginosa 5263; settings: Pseudomonas aeruginosa
Protocol: as §1, §2

[31] = system: Staph. aureus 642A; settings: Staphylococcus aureus
Protocol: as §1, §2

[32] = system: Strep. bovis A5169; settings: Streptococcus equinus
Protocol: as §1, §2

[33] = system: Escherichia coli Juhl
Protocol: as §1, §2

[34] = system: Candida albicans CCH 442; settings: CCH442
Protocol: as §1, §2

[35] = system: Staph. aureus ATCC 6538P; settings: Staphylococcus aureus, ATCC6538P
Protocol: as §1, §2

[36] = M. luteus ATCC 9341, agar dilution, read-out: MIC
[37] = E. coli KNK 437, agar dilution, read-out: MIC
[38] = M. luteus ATCC 4698, agar dilution, read-out: MIC
[39] = E. coli SS, agar dilution, read-out: MIC
[40] = P. aeruginosa 2862, agar dilution, read-out: MIC
[41] = E. coli DC-2, agar dilution, read-out: MIC
[42] = P. aeruginosa BMH 10, agar dilution, read-out: MIC
[43] = P. aeruginosa K799/WT, agar dilution, read-out: MIC
[44] = E. coli H560, agar dilution, read-out: MIC
[45] = P. aeruginosa A5007, agar dilution, read-out: MIC
[46] = Acinetobacter calcoaceticus CMX 669, agar dilution, read-out: MIC
[47] = P. aeruginosa 5263, agar dilution, read-out: MIC
[48] = Strep. bovis A5169, agar dilution, read-out: MIC
[49] = Candida albicans CCH 442, agar dilution, read-out: MIC
[50] = Entero. faecium ATCC 8043, agar dilution, read-out: MIC

| SMILES | MIC [1] [µg/mL] | MIC [2, 36] [µg/mL] | MIC [3] [µg/mL] | MIC [4, 37] [µg/mL] | MIC [5, 38] [µg/mL] | MIC [9] [µg/mL] | MIC [10] [µg/mL] | MIC [14] [µg/mL] | MIC [15] [µg/mL] | MIC [16] [µg/mL] | MIC [17] [µg/mL] | MIC [21] [µg/mL] | MIC [22] [µg/mL] | MIC [23] [µg/mL] | MIC [24] [µg/mL] | MIC [25] [µg/mL] | MIC [27] [µg/mL] | MIC [31] [µg/mL] | MIC [33] [µg/mL] | MIC [35] [µg/mL] | further results |
| --- | --- | --- | --- | --- | --- | --- | --- | --- | --- | --- | --- | --- | --- | --- | --- | --- | --- | --- | --- | --- | --- |
| N[C@H]1CCC[C@H]2CN(c3c(F)cn4c(=O)c(C(=O)O)cc5c4c3Oc3ccccc3-5)C[C@H]21 (relative stereo) [Example 3, 1-(3aα, 4β, 7aα-4-aminooctahydro-[1H]-isoindol-2-yl)-2-fluoro-5H-5-oxo-benzo[5.6]pyrano[2.3.4-ij]quinolizine-6-carboxylic acid hydrochloride] | 0.78 | 0.39 | 3.1 | 25 | 0.78 | 0.39 | 0.78 | 0.78 | 0.78 | > 100 | 100 | 0.39 | 0.2 | 25 | 0.78 | 1.56 | 0.39 | 0.78 | 6.2 | 0.78 | MIC [6, 39]: 0.78 µg/mL; MIC ([7]; Nocardia asteroides): 1.56 µg/mL; MIC [8, 40]: > 100 µg/mL; MIC [11]: 1.56 µg/mL; MIC ([12]; Klebsiella pneumoniae): 1.56 µg/mL; MIC [13, 41]: 100 µg/mL; MIC [18, 42]: 100 µg/mL; MIC [19, 43]: > 100 µg/mL; MIC [20, 44]: 6.2 µg/mL; MIC [26]: 0.78 µg/mL; MIC [28, 45]: > 100 µg/mL; MIC [29, 46]: 12.5 µg/mL; MIC [30, 47]: > 100 µg/mL; MIC [32, 48]: 0.39 µg/mL; MIC [34, 49]: > 100 µg/mL |
| O=C(O)c1cn(C2CC2)c2cc(N3CCNCC3)c(F)cc2c1=O [Ciprofloxacin, ciprofloxacin, reference compound] | 0.39 (≈ 1.18 µM) |  | > 100 |  |  | 0.39 (≈ 1.18 µM) | 0.39 (≈ 1.18 µM) | 0.39 (≈ 1.18 µM) | 0.78 (≈ 2.35 µM) | 3.1 (≈ 9.36 µM) | 0.78 (≈ 2.35 µM) | 0.78 (≈ 2.35 µM) | 0.78 (≈ 2.35 µM) | 0.02 (≈ 0.0604 µM) | 0.39 (≈ 1.18 µM) | 0.02 (≈ 0.0604 µM) | 0.39 (≈ 1.18 µM) | 0.39 (≈ 1.18 µM) | 0.01 (≈ 0.0302 µM) | 0.2 (≈ 0.604 µM) | MIC [2]: 1.56 µg/mL (≈ 4.71 µM); MIC [4]: 0.2 µg/mL (≈ 0.604 µM); MIC [5]: 0.78 µg/mL (≈ 2.35 µM); MIC [6]: 0.005 µg/mL (≈ 0.0151 µM); MIC ([7]; Nocardia asteroides): 12.5 µg/mL (≈ 37.7 µM); MIC [8]; 2862: 12.5 µg/mL (≈ 37.7 µM); MIC [11, 50]: 0.39 µg/mL (≈ 1.18 µM); MIC ([12]; Klebsiella pneumoniae): 0.02 µg/mL (≈ 0.0604 µM); MIC [13]: 0.2 µg/mL (≈ 0.604 µM); MIC [18]: 0.1 µg/mL (≈ 0.302 µM); MIC ([19]; K799/WT): 0.1 µg/mL (≈ 0.302 µM); MIC ([20]; H560): 0.01 µg/mL (≈ 0.0302 µM); MIC [26]: 0.78 µg/mL (≈ 2.35 µM); MIC ([28]; A5007): 0.1 µg/mL (≈ 0.302 µM); MIC ([29]; Acinetobacter calcoaceticus): 0.39 µg/mL (≈ 1.18 µM); MIC [30]; 5263: 12.5 µg/mL (≈ 37.7 µM); MIC ([32]; A5169): 1.56 µg/mL (≈ 4.71 µM); MIC ([34]; Candida albicans): > 100 µg/mL |
| O=C(O)c1cc2c3c(c(N4CCOCC4)c(F)cn3c1=O)Oc1ccccc1-2 [Example 1, 1-(1-morpholinyl)-2-fluoro-5H-5-oxo-benzo[5.6]pyrano[2,3.4-ij]quinolizine-6-carboxylic acid] | 0.39 (≈ 1.02 µM) | 1.56 (≈ 4.08 µM) | 1.56 (≈ 4.08 µM) | 50 (≈ 131 µM) | 0.39 (≈ 1.02 µM) | 3.1 (≈ 8.11 µM) | 0.78 (≈ 2.04 µM) | 0.39 (≈ 1.02 µM) | 0.78 (≈ 2.04 µM) | 100 (≈ 262 µM) | > 100 | 3.1 (≈ 8.11 µM) | 6.2 (≈ 16.2 µM) | > 100 | 0.78 (≈ 2.04 µM) | 12.5 (≈ 32.7 µM) | 6.2 (≈ 16.2 µM) | 0.78 (≈ 2.04 µM) | > 100 | 0.78 (≈ 2.04 µM) | MIC [6, 39]: 0.39 µg/mL (≈ 1.02 µM); MIC [8, 40]: > 100 µg/mL; MIC [11, 50]: 25 µg/mL (≈ 65.4 µM); MIC ([12]; Klebsiella pneumoniae): 12.5 µg/mL (≈ 32.7 µM); MIC [13, 41]: > 100 µg/mL; MIC [18, 42]: > 100 µg/mL; MIC [19, 43]: > 100 µg/mL; MIC [20, 44]: > 100 µg/mL; MIC [28, 45]: > 100 µg/mL; MIC [29, 46]: 1.56 µg/mL (≈ 4.08 µM); MIC [30, 47]: > 100 µg/mL; MIC [32, 48]: 25 µg/mL (≈ 65.4 µM) |
| NC1CCN(c2c(F)cn3c(=O)c(C(=O)O)cc4c3c2Oc2ccccc2-4)C1 (centres unmarked) [Example 2, 1-(3-amino-pyrrolidinyl)-2-fluoro-5H-5-oxo-benzo[5,6]pyrano[2.3.4-ij]quinolizine-6-carboxylic acid hydrochloride] | 3.1 | 3.1 | 6.2 | 3.1 | 3.1 | 3.1 | 6.2 | 3.1 | 6.2 | > 100 | > 100 | 3.1 | 3.1 | 6.2 | 6.2 | 6.2 | 3.1 | 6.2 | 3.1 | 6.2 | MIC [6, 39]: 0.78 µg/mL; MIC ([7]; Nocardia asteroides ATCC 9970, agar dilution, read-out: MIC): 3.1 µg/mL; MIC [8, 40]: > 100 µg/mL; MIC [11, 50]: 6.2 µg/mL; MIC ([12]; Klebsiella pneumoniae ATCC 8045, agar dilution, read-out: MIC): 1.56 µg/mL; MIC [13, 41]: 12.5 µg/mL; MIC [18, 42]: 25 µg/mL; MIC [19, 43]: 50 µg/mL; MIC [20, 44]: 3.1 µg/mL; MIC [26]: 3.1 µg/mL; MIC [28, 45]: 100 µg/mL; MIC [29, 46]: 6.2 µg/mL; MIC [30, 47]: > 100 µg/mL; MIC [32, 48]: 3.1 µg/mL; MIC [34, 49]: > 100 µg/mL |
